Earlier results as cited in US12390417B2, “Praziquantel formulations” (Villya LLC, priority 2020, dated 2025).
Converted amounts (≈) assume the structure as drawn.

Details: in water; according to the Merck Index

**Q.** For `O=C(C1CCCCC1)N1CC(=O)N2CCc3ccccc3C2C1` (racemic) [Praziquantel, (RS)-2-(Cyclohexylcarbonyl)-1,2,3,6,7,11b-hexahydro-4H-pyrazino[2,1-a]isoquinolin-4-one], which solubility is on record?
**A.** 400 µg/mL (≈ 1280 µM)
